Data: the supplement of paper PMC10307832

Tests used:
Assay in all cases: relative viability (nuclei count vs DMSO), 5 days (fraction); higher = more cells survive
Axitinib = compound: CNC(=O)c1ccccc1Sc1ccc2c(/C=C/c3ccccn3)n[nH]c2c1 [Axitinib]
Outline: (§1)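 Lung cancer cell lines were seeded into 1536-well plates, kept overnight at 37 °C and pinned with five library-drug doses (not always all listed) spaced by √10. After 5 days, nuclei were Hoechst-stained, imaged at 4× and counted with MetaXpress. Viability is treated-well nuclei over vehicle-well nuclei, taken as a median across plates. Plates needed control CV below 25% and at least one doubling.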

Pifithrin_alpha = compound: CC1=CC=C(C=C1)C(=O)CN2C3=C(CCCC3)SC2=N [Pifithrin_alpha]
Outline: as §1

Bemcentinib = compound: Nc1nc(Nc2ccc3c(c2)CC[C@@H](N2CCCC2)CC3)nn1-c1cc2c(nn1)-c1ccccc1CCC2 [Bemcentinib]
Outline: as §1

Cell Line: NCI-H2126
- relative viability (Axitinib; 0.005 µM): 0.979
- relative viability (Axitinib; 0.01581 µM): 0.991
- relative viability (Axitinib; 0.05 µM): 0.993
- relative viability (Axitinib; 0.1581 µM): 1
- relative viability (Axitinib; 0.5 µM): 0.953
- relative viability (Pifithrin_alpha; 1 µM): 0.638
- relative viability (Pifithrin_alpha; 3.162 µM): 0.862
- relative viability (Pifithrin_alpha; 10 µM): 0.884
- relative viability (Pifithrin_alpha; 31.62 µM): 0.85
- relative viability (Pifithrin_alpha; 100 µM): 0.822
- relative viability (Bemcentinib; 0.04 µM): 1
- relative viability (Bemcentinib; 0.1265 µM): 1.03
- relative viability (Bemcentinib; 0.4 µM): 1.03
- relative viability (Bemcentinib; 1.265 µM): 1.04
- relative viability (Bemcentinib; 4 µM): 1.11

Cell Line: NCI-H2170
- relative viability (Axitinib; 0.005 µM): 1.1
- relative viability (Axitinib; 0.01581 µM): 0.975
- relative viability (Axitinib; 0.05 µM): 1.01
- relative viability (Axitinib; 0.1581 µM): 0.974
- relative viability (Axitinib; 0.5 µM): 1
- relative viability (Pifithrin_alpha; 1 µM): 0.989
- relative viability (Pifithrin_alpha; 3.162 µM): 1.04
- relative viability (Pifithrin_alpha; 10 µM): 0.875
- relative viability (Pifithrin_alpha; 31.62 µM): 0.948
- relative viability (Pifithrin_alpha; 100 µM): 0.962
- relative viability (Bemcentinib; 0.04 µM): 1.09
- relative viability (Bemcentinib; 0.1265 µM): 1.09
- relative viability (Bemcentinib; 0.4 µM): 0.991
- relative viability (Bemcentinib; 1.265 µM): 0.999
- relative viability (Bemcentinib; 4 µM): 0.899

Cell Line: NCI-H2228
- relative viability (Axitinib; 0.005 µM): 1.09
- relative viability (Axitinib; 0.01581 µM): 0.943
- relative viability (Axitinib; 0.05 µM): 1.05
- relative viability (Axitinib; 0.1581 µM): 1.05
- relative viability (Axitinib; 0.5 µM): 1.03
- relative viability (Pifithrin_alpha; 1 µM): 0.99
- relative viability (Pifithrin_alpha; 3.162 µM): 1.03
- relative viability (Pifithrin_alpha; 10 µM): 0.97
- relative viability (Pifithrin_alpha; 31.62 µM): 0.93
- relative viability (Pifithrin_alpha; 100 µM): 1.05
- relative viability (Bemcentinib; 0.04 µM): 0.8
- relative viability (Bemcentinib; 0.1265 µM): 1.13
- relative viability (Bemcentinib; 0.4 µM): 1.05
- relative viability (Bemcentinib; 1.265 µM): 0.96
- relative viability (Bemcentinib; 4 µM): 1.22

Cell Line: NCI-H2342
- relative viability (Axitinib; 0.005 µM): 0.975
- relative viability (Axitinib; 0.01581 µM): 1.14
- relative viability (Axitinib; 0.05 µM): 1.01
- relative viability (Axitinib; 0.1581 µM): 1.09
- relative viability (Axitinib; 0.5 µM): 0.775
- relative viability (Pifithrin_alpha; 1 µM): 0.916
- relative viability (Pifithrin_alpha; 3.162 µM): 0.928
- relative viability (Pifithrin_alpha; 10 µM): 0.884
- relative viability (Pifithrin_alpha; 31.62 µM): 0.976
- relative viability (Pifithrin_alpha; 100 µM): 0.929
- relative viability (Bemcentinib; 0.04 µM): 0.949
- relative viability (Bemcentinib; 0.1265 µM): 1.06
- relative viability (Bemcentinib; 0.4 µM): 1.01
- relative viability (Bemcentinib; 1.265 µM): 0.932
- relative viability (Bemcentinib; 4 µM): 1.01

Cell Line: NCI-H2347
- relative viability (Axitinib; 0.005 µM): 0.983
- relative viability (Axitinib; 0.01581 µM): 0.959
- relative viability (Axitinib; 0.05 µM): 1.09
- relative viability (Axitinib; 0.1581 µM): 1.06
- relative viability (Axitinib; 0.5 µM): 0.951
- relative viability (Pifithrin_alpha; 1 µM): 0.954
- relative viability (Pifithrin_alpha; 3.162 µM): 1.03
- relative viability (Pifithrin_alpha; 10 µM): 1.07
- relative viability (Pifithrin_alpha; 31.62 µM): 0.744
- relative viability (Pifithrin_alpha; 100 µM): 1.03
- relative viability (Bemcentinib; 0.04 µM): 0.953
- relative viability (Bemcentinib; 0.1265 µM): 1.17
- relative viability (Bemcentinib; 0.4 µM): 1.06
- relative viability (Bemcentinib; 1.265 µM): 0.956
- relative viability (Bemcentinib; 4 µM): 1.04

Cell Line: NCI-H2405
- relative viability (Axitinib; 0.005 µM): 1
- relative viability (Axitinib; 0.01581 µM): 1.04
- relative viability (Axitinib; 0.05 µM): 1.14
- relative viability (Axitinib; 0.1581 µM): 0.973
- relative viability (Axitinib; 0.5 µM): 0.95
- relative viability (Pifithrin_alpha; 1 µM): 0.733
- relative viability (Pifithrin_alpha; 3.162 µM): 0.962
- relative viability (Pifithrin_alpha; 10 µM): 0.904
- relative viability (Pifithrin_alpha; 31.62 µM): 0.876
- relative viability (Pifithrin_alpha; 100 µM): 0.921
- relative viability (Bemcentinib; 0.04 µM): 0.944
- relative viability (Bemcentinib; 0.1265 µM): 1.03
- relative viability (Bemcentinib; 0.4 µM): 1.01
- relative viability (Bemcentinib; 1.265 µM): 1
- relative viability (Bemcentinib; 4 µM): 1.08

Cell Line: NCI-H3122
- relative viability (Axitinib; 0.005 µM): 0.973
- relative viability (Axitinib; 0.01581 µM): 0.985
- relative viability (Axitinib; 0.05 µM): 1.02
- relative viability (Axitinib; 0.1581 µM): 1.02
- relative viability (Axitinib; 0.5 µM): 1.11
- relative viability (Pifithrin_alpha; 1 µM): 0.982
- relative viability (Pifithrin_alpha; 3.162 µM): 0.999
- relative viability (Pifithrin_alpha; 10 µM): 0.965
- relative viability (Pifithrin_alpha; 31.62 µM): 0.745
- relative viability (Pifithrin_alpha; 100 µM): 1.02
- relative viability (Bemcentinib; 0.1265 µM): 1.06
- relative viability (Bemcentinib; 0.4 µM): 0.977
- relative viability (Bemcentinib; 1.265 µM): 1.06
- relative viability (Bemcentinib; 4 µM): 1.06

Cell Line: PC-3 [JPC-3]
- relative viability (Axitinib; 0.005 µM): 1.08
- relative viability (Axitinib; 0.05 µM): 1.1
- relative viability (Axitinib; 0.1581 µM): 1.03
- relative viability (Axitinib; 0.5 µM): 1.2
- relative viability (Pifithrin_alpha; 1 µM): 0.73
- relative viability (Pifithrin_alpha; 3.162 µM): 1.03
- relative viability (Pifithrin_alpha; 10 µM): 0.934
- relative viability (Pifithrin_alpha; 31.62 µM): 0.949
- relative viability (Pifithrin_alpha; 100 µM): 0.932
- relative viability (Bemcentinib; 0.04 µM): 0.978
- relative viability (Bemcentinib; 0.1265 µM): 1.06
- relative viability (Bemcentinib; 0.4 µM): 1.12
- relative viability (Bemcentinib; 1.265 µM): 1.05
- relative viability (Bemcentinib; 4 µM): 1.06

Cell Line: PC-14
- relative viability (Axitinib; 0.005 µM): 1.05
- relative viability (Axitinib; 0.01581 µM): 0.808
- relative viability (Axitinib; 0.05 µM): 1.09
- relative viability (Axitinib; 0.1581 µM): 0.951
- relative viability (Axitinib; 0.5 µM): 1.13
- relative viability (Pifithrin_alpha; 1 µM): 0.866
- relative viability (Pifithrin_alpha; 3.162 µM): 1.02
- relative viability (Pifithrin_alpha; 10 µM): 0.949
- relative viability (Pifithrin_alpha; 31.62 µM): 0.625
- relative viability (Pifithrin_alpha; 100 µM): 0.842
- relative viability (Bemcentinib; 0.04 µM): 1.02
- relative viability (Bemcentinib; 0.1265 µM): 1.15
- relative viability (Bemcentinib; 0.4 µM): 1.1
- relative viability (Bemcentinib; 1.265 µM): 1.02
- relative viability (Bemcentinib; 4 µM): 1.02

Cell Line: RERF-LC-KJ
- relative viability (Axitinib; 0.005 µM): 1.07
- relative viability (Axitinib; 0.01581 µM): 0.991
- relative viability (Axitinib; 0.05 µM): 1.01
- relative viability (Axitinib; 0.1581 µM): 0.984
- relative viability (Axitinib; 0.5 µM): 1.04
- relative viability (Pifithrin_alpha; 1 µM): 0.873
- relative viability (Pifithrin_alpha; 3.162 µM): 0.935
- relative viability (Pifithrin_alpha; 10 µM): 0.858
- relative viability (Pifithrin_alpha; 31.62 µM): 0.81
- relative viability (Pifithrin_alpha; 100 µM): 0.795
- relative viability (Bemcentinib; 0.04 µM): 1.07
- relative viability (Bemcentinib; 0.1265 µM): 1.04
- relative viability (Bemcentinib; 0.4 µM): 1.11
- relative viability (Bemcentinib; 1.265 µM): 1.07
- relative viability (Bemcentinib; 4 µM): 1.06

Cell Line: SK-LU-1
- relative viability (Axitinib; 0.005 µM): 1.06
- relative viability (Axitinib; 0.01581 µM): 1.12
- relative viability (Axitinib; 0.05 µM): 0.946
- relative viability (Axitinib; 0.1581 µM): 1.04
- relative viability (Axitinib; 0.5 µM): 1.15
- relative viability (Pifithrin_alpha; 1 µM): 1.08
- relative viability (Pifithrin_alpha; 3.162 µM): 1.16
- relative viability (Pifithrin_alpha; 10 µM): 1.21
- relative viability (Pifithrin_alpha; 31.62 µM): 0.805
- relative viability (Pifithrin_alpha; 100 µM): 1.21
- relative viability (Bemcentinib; 0.04 µM): 1.04
- relative viability (Bemcentinib; 0.1265 µM): 1.19
- relative viability (Bemcentinib; 0.4 µM): 1.13
- relative viability (Bemcentinib; 1.265 µM): 1.08
- relative viability (Bemcentinib; 4 µM): 1.12

Cell Line: SK-MES-1
- relative viability (Axitinib; 0.005 µM): 1.03
- relative viability (Axitinib; 0.01581 µM): 0.998
- relative viability (Axitinib; 0.05 µM): 1.01
- relative viability (Axitinib; 0.1581 µM): 0.976
- relative viability (Axitinib; 0.5 µM): 1.06
- relative viability (Pifithrin_alpha; 1 µM): 0.893
- relative viability (Pifithrin_alpha; 3.162 µM): 0.927
- relative viability (Pifithrin_alpha; 10 µM): 0.901
- relative viability (Pifithrin_alpha; 31.62 µM): 0.726
- relative viability (Pifithrin_alpha; 100 µM): 0.815
- relative viability (Bemcentinib; 0.04 µM): 1.03
- relative viability (Bemcentinib; 0.1265 µM): 1.09
- relative viability (Bemcentinib; 0.4 µM): 1.07
- relative viability (Bemcentinib; 1.265 µM): 1.11
- relative viability (Bemcentinib; 4 µM): 1.11

Cell Line: SW 900
- relative viability (Axitinib; 0.005 µM): 0.929
- relative viability (Axitinib; 0.01581 µM): 0.584
- relative viability (Axitinib; 0.05 µM): 0.724
- relative viability (Axitinib; 0.1581 µM): 0.92
- relative viability (Axitinib; 0.5 µM): 1.01
- relative viability (Pifithrin_alpha; 1 µM): 0.706
- relative viability (Pifithrin_alpha; 3.162 µM): 0.643
- relative viability (Pifithrin_alpha; 10 µM): 0.75
- relative viability (Pifithrin_alpha; 31.62 µM): 0.648
- relative viability (Pifithrin_alpha; 100 µM): 0.653
- relative viability (Bemcentinib; 0.04 µM): 0.772
- relative viability (Bemcentinib; 0.1265 µM): 0.97
- relative viability (Bemcentinib; 0.4 µM): 0.913
- relative viability (Bemcentinib; 1.265 µM): 0.742
- relative viability (Bemcentinib; 4 µM): 0.871

Cell Line: SW 1573
- relative viability (Axitinib; 0.005 µM): 0.982
- relative viability (Axitinib; 0.01581 µM): 1
- relative viability (Axitinib; 0.05 µM): 1.09
- relative viability (Axitinib; 0.1581 µM): 0.867
- relative viability (Axitinib; 0.5 µM): 1.08
- relative viability (Pifithrin_alpha; 1 µM): 1.04
- relative viability (Pifithrin_alpha; 3.162 µM): 1.01
- relative viability (Pifithrin_alpha; 10 µM): 1.09
- relative viability (Pifithrin_alpha; 31.62 µM): 0.787
- relative viability (Pifithrin_alpha; 100 µM): 0.981
- relative viability (Bemcentinib; 0.04 µM): 0.912
- relative viability (Bemcentinib; 0.1265 µM): 1.06
- relative viability (Bemcentinib; 0.4 µM): 1.1
- relative viability (Bemcentinib; 1.265 µM): 0.921
- relative viability (Bemcentinib; 4 µM): 0.968

Cell Line: UMC-11
- relative viability (Axitinib; 0.005 µM): 1.03
- relative viability (Axitinib; 0.01581 µM): 0.943
- relative viability (Axitinib; 0.05 µM): 0.956
- relative viability (Axitinib; 0.1581 µM): 0.935
- relative viability (Axitinib; 0.5 µM): 0.899
- relative viability (Pifithrin_alpha; 1 µM): 0.965
- relative viability (Pifithrin_alpha; 3.162 µM): 0.949
- relative viability (Pifithrin_alpha; 10 µM): 1.04
- relative viability (Pifithrin_alpha; 31.62 µM): 0.907
- relative viability (Pifithrin_alpha; 100 µM): 1.23
- relative viability (Bemcentinib; 0.04 µM): 0.982
- relative viability (Bemcentinib; 0.1265 µM): 1.13
- relative viability (Bemcentinib; 0.4 µM): 1.08
- relative viability (Bemcentinib; 1.265 µM): 0.871
- relative viability (Bemcentinib; 4 µM): 0.995
